Patent publication US11865098B1, “Methods and compositions for treating excessive sleepiness” (Axsome Malta Ltd., priority 2017, dated 2024)

System: patients with narcolepsy type 1 or type 2
Test: Safety and tolerability (TEAEs, discontinuations), 12-week phase 3 study in narcolepsy
Type: in vivo, human
Conditions: for Anxiety, incidence % / Anxiety, incidence n / Any TEAE, incidence % / Any TEAE, incidence n / Constipation, incidence % / Constipation, incidence n / Decreased appetite, incidence % / Decreased appetite, incidence n / Diarrhea, incidence % / Diarrhea, incidence n / Discontinuations due to TEAEs, incidence % / Discontinuations due to TEAEs, incidence n / Dizziness, incidence % / Dizziness, incidence n / Dry mouth, incidence % / Dry mouth, incidence n / Dyspepsia, incidence % / Dyspepsia, incidence n / Fatigue, incidence n / Headache, incidence % / Headache, incidence n / Heart rate increased, incidence n / Influenza, incidence % / Influenza, incidence n / Insomnia, incidence % / Insomnia, incidence n / Nasopharyngitis, incidence % / Nasopharyngitis, incidence n / Nausea, incidence % / Nausea, incidence n / Serious TEAEs, incidence n / Upper respiratory tract infection, incidence % / Upper respiratory tract infection, incidence n / Weight Increased, incidence % / Weight Increased, incidence n / Weight decreased, incidence % / Weight decreased, incidence n / Fatigue, incidence % / Serious TEAEs, incidence % / Heart rate increased, incidence %: safety population
Procedure: The study was a 12-week, double-blind, randomized, placebo-controlled, parallel-group study. Patients were randomized (1:1:1:1) to receive placebo or APC 75, 150, or 300 mg; randomization was stratified by the presence or absence of cataplexy.
Co-primary endpoints were change from baseline to week 12 in MWT mean sleep latency and ESS score. The key secondary endpoint was the percentage of patients who reported improvement on the Patient Global Impression of Change (PGI-C) (Guy, ECDEU assessment manual for psychopharmacology, revised. US Department of Health, Education, and Welfare publication (ADM 76-338). Rockville, MD: National Institute of Mental Health; 1976) at week 12. Other secondary and exploratory endpoints included changes on function and quality-of-life and changes in the number of cataplexy attacks per week. Safety evaluation included adverse events, laboratory tests, and vital signs.

NC(=O)OC[C@H](N)Cc1ccccc1 [JZP-110, (R)-2-amino-3-phenylpropyl carbamate]
Discontinuation rate (75 mg): 16.9%
Anxiety, incidence % (75 mg): (1.7) %
Anxiety, incidence n (75 mg): 1
Any TEAE, incidence % (75 mg): (57.6) %
Any TEAE, incidence n (75 mg): 34
Constipation, incidence % (75 mg): (5.1) %
Constipation, incidence n (75 mg): 3
Decreased appetite, incidence % (75 mg): (8.5) %
Decreased appetite, incidence n (75 mg): 5
Diarrhea, incidence % (75 mg): (3.4) %
Diarrhea, incidence n (75 mg): 2
Discontinuations due to TEAEs, incidence % (75 mg): (1.7) %
Discontinuations due to TEAEs, incidence n (75 mg): 1
Dizziness, incidence % (75 mg): (3.4) %
Dizziness, incidence n (75 mg): 2
Dry mouth, incidence % (75 mg): (5.1) %
Dry mouth, incidence n (75 mg): 3
Dyspepsia, incidence % (75 mg): (1.7) %
Dyspepsia, incidence n (75 mg): 1
Fatigue, incidence n (75 mg): 0
Headache, incidence % (75 mg): (10.2) %
Headache, incidence n (75 mg): 6
Heart rate increased, incidence n (75 mg): 0
Influenza, incidence % (75 mg): (3.4) %
Influenza, incidence n (75 mg): 2
Insomnia, incidence % (75 mg): (3.4) %
Insomnia, incidence n (75 mg): 2
Nasopharyngitis, incidence % (75 mg): (8.5) %
Nasopharyngitis, incidence n (75 mg): 5
Nausea, incidence % (75 mg): (5.1) %
Nausea, incidence n (75 mg): 3
Serious TEAEs, incidence n (75 mg): 0
Upper respiratory tract infection, incidence % (75 mg): (1.7) %
Upper respiratory tract infection, incidence n (75 mg): 1
Weight Increased, incidence % (75 mg): (3.4) %
Weight Increased, incidence n (75 mg): 2
Weight decreased, incidence % (75 mg): (1.7) %
Weight decreased, incidence n (75 mg): 1
Discontinuation rate (150 mg): 13.6%
Serious TEAEs (events) (150 mg, one patient, deemed not related by the investigator): 2 serious TEAEs of non-cardiac chest pain and anxiety
Anxiety, incidence % (150 mg): (5.1) %
Anxiety, incidence n (150 mg): 3
Any TEAE, incidence % (150 mg): (79.7) %
Any TEAE, incidence n (150 mg): 47
Constipation, incidence % (150 mg): (1.7) %
Constipation, incidence n (150 mg): 1
Decreased appetite, incidence % (150 mg): (8.5) %
Decreased appetite, incidence n (150 mg): 5
Diarrhea, incidence % (150 mg): (5.1) %
Diarrhea, incidence n (150 mg): 3
Discontinuations due to TEAEs, incidence % (150 mg): (5.1) %
Discontinuations due to TEAEs, incidence n (150 mg): 3
Dizziness, incidence % (150 mg): (1.7) %
Dizziness, incidence n (150 mg): 1
Dry mouth, incidence % (150 mg): (6.8) %
Dry mouth, incidence n (150 mg): 4
Dyspepsia, incidence % (150 mg): (3.4) %
Dyspepsia, incidence n (150 mg): 2
Fatigue, incidence % (150 mg): (3.4) %
Fatigue, incidence n (150 mg): 2
Headache, incidence % (150 mg): (23.7) %
Headache, incidence n (150 mg): 14
Heart rate increased, incidence n (150 mg): 0
Influenza, incidence % (150 mg): (1.7) %
Influenza, incidence n (150 mg): 1
Insomnia, incidence n (150 mg): 0
Nasopharyngitis, incidence % (150 mg): (13.6) %
Nasopharyngitis, incidence n (150 mg): 8
Nausea, incidence % (150 mg): (10.2) %
Nausea, incidence n (150 mg): 6
Serious TEAEs, incidence % (150 mg): (1.7) %
Serious TEAEs, incidence n (150 mg): 1
Upper respiratory tract infection, incidence % (150 mg): (6.8) %
Upper respiratory tract infection, incidence n (150 mg): 4
Weight Increased, incidence n (150 mg): 0
Weight decreased, incidence % (150 mg): (1.7) %
Weight decreased, incidence n (150 mg): 1
Discontinuation rate (300 mg): 27.1%
Discontinuation due to adverse events (300 mg, n=5): 8.5%
Anxiety, incidence % (300 mg): (8.5) %
Anxiety, incidence n (300 mg): 5
Any TEAE, incidence % (300 mg): (67.8) %
Any TEAE, incidence n (300 mg): 40
Constipation, incidence n (300 mg): 0
Decreased appetite, incidence % (300 mg): (15.3) %
Decreased appetite, incidence n (300 mg): 9
Diarrhea, incidence % (300 mg): (5.1) %
Diarrhea, incidence n (300 mg): 3
Discontinuations due to TEAEs, incidence % (300 mg): (8.5) %
Discontinuations due to TEAEs, incidence n (300 mg): 5
Dizziness, incidence % (300 mg): (5.1) %
Dizziness, incidence n (300 mg): 3
Dry mouth, incidence % (300 mg): (10.2) %
Dry mouth, incidence n (300 mg): 6
Dyspepsia, incidence % (300 mg): (5.1) %
Dyspepsia, incidence n (300 mg): 3
Fatigue, incidence % (300 mg): (5.1) %
Fatigue, incidence n (300 mg): 3
Headache, incidence % (300 mg): (30.5) %
Headache, incidence n (300 mg): 18
Heart rate increased, incidence % (300 mg): (6.8) %
Heart rate increased, incidence n (300 mg): 4
Influenza, incidence % (300 mg): (1.7) %
Influenza, incidence n (300 mg): 1
Insomnia, incidence % (300 mg): (5.1) %
Insomnia, incidence n (300 mg): 3
Nasopharyngitis, incidence % (300 mg): (5.1) %
Nasopharyngitis, incidence n (300 mg): 3
Nausea, incidence % (300 mg): (16.9) %
Nausea, incidence n (300 mg): 10
Serious TEAEs, incidence n (300 mg): 0
Upper respiratory tract infection, incidence n (300 mg): 0
Weight Increased, incidence % (300 mg): (1.7) %
Weight Increased, incidence n (300 mg): 1
Weight decreased, incidence % (300 mg): (5.1) %
Weight decreased, incidence n (300 mg): 3
Discontinuations due to TEAEs compared with placebo (150 and 300 mg groups): greater than placebo
Anxiety, incidence % (All JZP-110): (5.1) %
Anxiety, incidence n (All JZP-110): 9
Any TEAE, incidence % (All JZP-110): (68.4) %
Any TEAE, incidence n (All JZP-110): 121
Constipation, incidence % (All JZP-110): (2.3) %
Constipation, incidence n (All JZP-110): 4
Decreased appetite, incidence % (All JZP-110): (10.7) %
Decreased appetite, incidence n (All JZP-110): 19
Diarrhea, incidence % (All JZP-110): (4.5) %
Diarrhea, incidence n (All JZP-110): 8
Discontinuations due to TEAEs, incidence % (All JZP-110): (5.1) %
Discontinuations due to TEAEs, incidence n (All JZP-110): 9
Dizziness, incidence % (All JZP-110): (3.4) %
Dizziness, incidence n (All JZP-110): 6
Dry mouth, incidence % (All JZP-110): (7.3) %
Dry mouth, incidence n (All JZP-110): 13
Dyspepsia, incidence % (All JZP-110): (3.4) %
Dyspepsia, incidence n (All JZP-110): 6
Fatigue, incidence % (All JZP-110): (2.8) %
Fatigue, incidence n (All JZP-110): 5
Headache, incidence % (All JZP-110): (21.5) %
Headache, incidence n (All JZP-110): 38
Heart rate increased, incidence % (All JZP-110): (2.3) %
Heart rate increased, incidence n (All JZP-110): 4
Influenza, incidence % (All JZP-110): (2.3) %
Influenza, incidence n (All JZP-110): 4
Insomnia, incidence % (All JZP-110): (2.8) %
Insomnia, incidence n (All JZP-110): 5
Nasopharyngitis, incidence % (All JZP-110): (9.0) %
Nasopharyngitis, incidence n (All JZP-110): 16
Nausea, incidence % (All JZP-110): (10.7) %
Nausea, incidence n (All JZP-110): 19
Serious TEAEs, incidence % (All JZP-110): (0.6) %
Serious TEAEs, incidence n (All JZP-110): 1
Upper respiratory tract infection, incidence % (All JZP-110): (2.8) %
Upper respiratory tract infection, incidence n (All JZP-110): 5
Weight Increased, incidence % (All JZP-110): (1.7) %
Weight Increased, incidence n (All JZP-110): 3
Weight decreased, incidence % (All JZP-110): (2.8) %
Weight decreased, incidence n (All JZP-110): 5
